According to publication PMC3241888 (Nature chemical biology, 2011):

Target: T1, Pol δ (Saccharomyces cerevisiae, UniProt P15436)
T1 sequence (P15436 1-1097): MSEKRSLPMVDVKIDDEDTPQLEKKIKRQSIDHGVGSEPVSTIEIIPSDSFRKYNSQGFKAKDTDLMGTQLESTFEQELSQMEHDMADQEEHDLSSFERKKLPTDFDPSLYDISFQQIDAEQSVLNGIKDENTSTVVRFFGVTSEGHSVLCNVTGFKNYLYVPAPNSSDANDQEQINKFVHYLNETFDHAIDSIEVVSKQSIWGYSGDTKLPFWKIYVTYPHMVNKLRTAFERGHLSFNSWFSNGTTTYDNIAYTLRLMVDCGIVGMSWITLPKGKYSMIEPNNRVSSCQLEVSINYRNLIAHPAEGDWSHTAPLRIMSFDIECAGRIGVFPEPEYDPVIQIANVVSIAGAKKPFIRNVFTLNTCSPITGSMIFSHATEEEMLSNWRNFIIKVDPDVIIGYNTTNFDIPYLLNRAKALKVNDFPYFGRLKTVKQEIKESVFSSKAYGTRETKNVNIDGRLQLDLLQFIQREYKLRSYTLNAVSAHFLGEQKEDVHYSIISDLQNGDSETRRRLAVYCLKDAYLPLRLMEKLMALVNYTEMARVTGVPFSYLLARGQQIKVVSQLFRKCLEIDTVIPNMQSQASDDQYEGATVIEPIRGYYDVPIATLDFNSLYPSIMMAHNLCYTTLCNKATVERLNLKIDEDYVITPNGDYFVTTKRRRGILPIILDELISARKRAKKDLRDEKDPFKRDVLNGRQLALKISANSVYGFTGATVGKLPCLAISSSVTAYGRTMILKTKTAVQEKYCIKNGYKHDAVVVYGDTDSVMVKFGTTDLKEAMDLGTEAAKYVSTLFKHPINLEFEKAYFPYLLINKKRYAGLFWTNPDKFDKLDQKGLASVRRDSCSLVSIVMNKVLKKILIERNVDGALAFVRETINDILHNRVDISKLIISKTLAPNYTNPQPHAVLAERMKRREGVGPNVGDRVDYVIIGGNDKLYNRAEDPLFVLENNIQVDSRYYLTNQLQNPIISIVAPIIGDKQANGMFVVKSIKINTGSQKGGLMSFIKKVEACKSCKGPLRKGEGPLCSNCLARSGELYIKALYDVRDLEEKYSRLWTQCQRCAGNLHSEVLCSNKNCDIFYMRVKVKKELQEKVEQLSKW
T1 sequence (P46957 1-487 partner): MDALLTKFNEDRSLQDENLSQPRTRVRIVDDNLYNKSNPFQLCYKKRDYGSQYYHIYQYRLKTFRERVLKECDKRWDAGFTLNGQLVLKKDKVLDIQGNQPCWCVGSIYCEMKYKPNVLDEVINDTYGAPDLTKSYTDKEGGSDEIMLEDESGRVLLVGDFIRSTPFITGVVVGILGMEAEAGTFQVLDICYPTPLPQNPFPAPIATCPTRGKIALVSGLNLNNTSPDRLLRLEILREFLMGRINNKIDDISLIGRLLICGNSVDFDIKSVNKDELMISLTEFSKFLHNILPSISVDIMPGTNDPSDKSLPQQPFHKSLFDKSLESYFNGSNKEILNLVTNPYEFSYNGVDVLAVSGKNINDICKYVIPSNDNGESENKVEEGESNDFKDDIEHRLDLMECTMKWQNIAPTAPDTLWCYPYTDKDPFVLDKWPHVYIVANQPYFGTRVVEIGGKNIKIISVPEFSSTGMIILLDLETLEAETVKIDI
T1 sequence (P47110 1-350 partner): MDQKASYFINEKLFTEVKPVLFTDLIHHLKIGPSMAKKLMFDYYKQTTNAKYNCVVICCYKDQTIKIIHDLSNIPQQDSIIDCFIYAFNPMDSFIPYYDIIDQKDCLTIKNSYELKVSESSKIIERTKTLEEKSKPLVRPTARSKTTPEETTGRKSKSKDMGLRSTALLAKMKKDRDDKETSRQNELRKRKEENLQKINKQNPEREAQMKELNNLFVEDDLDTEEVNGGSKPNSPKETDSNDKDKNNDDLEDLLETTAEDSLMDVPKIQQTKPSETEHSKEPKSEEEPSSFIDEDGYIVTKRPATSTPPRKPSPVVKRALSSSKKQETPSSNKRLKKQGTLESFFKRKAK
Assay: UV-Vis
Type: binding
Settings: CysB site of Pol3; as isolated from yeast

[S]12[Fe]3[S]4[Fe]1[S]1[Fe]2[S]3[Fe]41 [[4Fe-4S] cluster]
mol non-heme iron and acid-labile sulfide ions per mol Pol δ: ~ 4 mol/mol
